Laboratory results as given in patent US12697330B2, “Therapeutic methods using vadadustat” (Akebia Therapeutics, Inc., priority 2021, dated 2026).

Tests used:
erythropoietin (EPO) [1] = assay: Phase 2 study, Main Study: pharmacodynamics, Baseline-Unadjusted serum EPO concentration; format: in vivo, human
Protocol: (§1) PK/PD Endpoints. An exposure-response analysis of vadadustat and PD measures were conducted as deemed appropriate. The PK parameters included (but were not limited to) the following: area under concentration-time curve from dosing to last measurable concentration (AUClast), area under concentration-time curve from dosing to infinity (AUCinf), Cmax, apparent total body clearance (CL/F), apparent volume of distribution (Vd/F), and terminal half-life (t1/2). The PD parameters included (but were not limited to) the following: EPO, reticulocytes, iron, ferritin, TIBC, and hepcidin.
(§2) PK population: included all randomized subjects who received study drug (vadadustat or epoetin alfa) and had enough drug concentrations to estimate AUC and Cmax. Analysis of this population was based on the dose amount taken at the date of PK sampling for the vadadustat group.
(§3) PD parameters for serum EPO concentration are presented by epoetin alfa stratification for vadadustat treatment groups in Table 7, Table 8a and Table 8b (baseline-unadjusted) and Table 9, Table 10a and Table 10b (baseline-adjusted).

erythropoietin (EPO) [2] = assay: Phase 2 study, Main Study: pharmacodynamics, Baseline-Adjusted serum EPO concentration; format: in vivo, human
Protocol: as §1, §2, §3

[3] = Vada 750 mg, Week 11, Low Epoetin Alfa Stratum ≤90 U/kg/week
[4] = Vada 750 mg, Week 13, High Epoetin Alfa Stratum >90 to <300 U/kg/week
[5] = Vada 750 mg, Week 13, Low Epoetin Alfa Stratum ≤90 U/kg/week
[6] = Vada 900 mg, Week 11, High Epoetin Alfa Stratum >90 to <300 U/kg/week
[7] = Vada 900 mg, Week 11, Low Epoetin Alfa Stratum ≤90 U/kg/week
[8] = Vada 150 mg, Week 11, High Epoetin Alfa Stratum >90 to <300 U/kg/week
[9] = Vada 150 mg, Week 11, Low Epoetin Alfa Stratum ≤90 U/kg/week
[10] = Vada 300 mg, Week 1 + 1, High Epoetin Alfa Stratum >90 to <300 U/kg/week
[11] = Vada 300 mg, Week 1 + 1, Low Epoetin Alfa Stratum ≤90 U/kg/week
[12] = Vada 300 mg, Week 1, High Epoetin Alfa Stratum >90 to <300 U/kg/week
[13] = Vada 300 mg, Week 1, Low Epoetin Alfa Stratum ≤90 U/kg/week
[14] = Vada 300 mg, Week 11, High Epoetin Alfa Stratum >90 to <300 U/kg/week
[15] = Vada 300 mg, Week 11, Low Epoetin Alfa Stratum ≤90 U/kg/week
[16] = Vada 450 mg, Week 1 + 1, High Epoetin Alfa Stratum >90 to <300 U/kg/week
[17] = Vada 450 mg, Week 1 + 1, Low Epoetin Alfa Stratum ≤90 U/kg/week
[18] = Vada 450 mg, Week 1, High Epoetin Alfa Stratum >90 to <300 U/kg/week
[19] = Vada 450 mg, Week 1, Low Epoetin Alfa Stratum ≤90 U/kg/week
[20] = Vada 450 mg, Week 11, High Epoetin Alfa Stratum >90 to <300 U/kg/week
[21] = Vada 450 mg, Week 11, Low Epoetin Alfa Stratum ≤90 U/kg/week
[22] = Vada 450 mg, Week 13, Low Epoetin Alfa Stratum ≤90 U/kg/week
[23] = Vada 600 mg, Week 1 + 1, High Epoetin Alfa Stratum >90 to <300 U/kg/week
[24] = Vada 600 mg, Week 1, High Epoetin Alfa Stratum >90 to <300 U/kg/week
[25] = Vada 600 mg, Week 11, High Epoetin Alfa Stratum >90 to <300 U/kg/week
[26] = Vada 600 mg, Week 11, Low Epoetin Alfa Stratum ≤90 U/kg/week
[27] = Vada 600 mg, Week 13, High Epoetin Alfa Stratum >90 to <300 U/kg/week
[28] = Vada 600 mg, Week 13, Low Epoetin Alfa Stratum ≤90 U/kg/week
[29] = Vada 750 mg, Week 11, High Epoetin Alfa Stratum >90 to <300 U/kg/week

Structure (SMILES): O=C(O)CNC(=O)c1ncc(-c2cccc(Cl)c2)cc1O [Compound 1, {[5-(3-chlorophenyl)-3-hydroxypyridine-2-carbonyl]amino}acetic acid]
- Baseline-Unadjusted serum EPO AUC0-5, Geometric Mean (erythropoietin (EPO) [1]; [3]): 41.3 µg·h/mL
- Baseline-Unadjusted serum EPO Cmax, Geometric Mean (erythropoietin (EPO) [1]; [3]): 12.5 µg/mL
- Baseline-Unadjusted serum EPO Tmax, Median (erythropoietin (EPO) [1]; [3]): 4.50 h
- Baseline-Unadjusted serum EPO AUC0-5, Geometric Mean (erythropoietin (EPO) [1]; [4]): 42.9 µg·h/mL
- Baseline-Unadjusted serum EPO Cmax, Geometric Mean (erythropoietin (EPO) [1]; [4]): 14.1 µg/mL
- Baseline-Unadjusted serum EPO Tmax, Median (erythropoietin (EPO) [1]; [4]): 0 h
- Baseline-Unadjusted serum EPO AUC0-5, Geometric Mean (erythropoietin (EPO) [1]; [5]): 40.8 µg·h/mL
- Baseline-Unadjusted serum EPO Cmax, Geometric Mean (erythropoietin (EPO) [1]; [5]): 13.2 µg/mL
- Baseline-Unadjusted serum EPO Tmax, Median (erythropoietin (EPO) [1]; [5]): 4.50 h
- Baseline-Unadjusted serum EPO AUC0-5, Geometric Mean (erythropoietin (EPO) [1]; [6]): 96.5 µg·h/mL
- Baseline-Unadjusted serum EPO Cmax, Geometric Mean (erythropoietin (EPO) [1]; [6]): 30.2 µg/mL
- Baseline-Unadjusted serum EPO Tmax, Median (erythropoietin (EPO) [1]; [6]): 0 h
- Baseline-Unadjusted serum EPO AUC0-5, Geometric Mean (erythropoietin (EPO) [1]; [7]): 81.0 µg·h/mL
- Baseline-Unadjusted serum EPO Cmax, Geometric Mean (erythropoietin (EPO) [1]; [7]): 24.4 µg/mL
- Baseline-Unadjusted serum EPO Tmax, Median (erythropoietin (EPO) [1]; [7]): 0 h
- Baseline-Adjusted Serum EPO Cmax, Geometric Mean (erythropoietin (EPO) [2]; [8]): 4.29 µg/mL
- Baseline-Adjusted Serum EPO Tmax, Median (erythropoietin (EPO) [2]; [8]): 0 h
- Baseline-Adjusted Serum EPO Cmax, Geometric Mean (erythropoietin (EPO) [2]; [9]): 4.32 µg/mL
- Baseline-Adjusted Serum EPO Tmax, Median (erythropoietin (EPO) [2]; [9]): 4.78 h
- Baseline-Adjusted Serum EPO Cmax, Geometric Mean (erythropoietin (EPO) [2]; [10]): 7.2 µg/mL
- Baseline-Adjusted Serum EPO Tmax, Median (erythropoietin (EPO) [2]; [10]): 0 h
- Baseline-Adjusted Serum EPO Cmax, Geometric Mean (erythropoietin (EPO) [2]; [11]): 10.1 µg/mL
- Baseline-Adjusted Serum EPO Tmax, Median (erythropoietin (EPO) [2]; [11]): 2.00 h
- Baseline-Adjusted Serum EPO Cmax, Geometric Mean (erythropoietin (EPO) [2]; [12]): 9.1 µg/mL
- Baseline-Adjusted Serum EPO Tmax, Median (erythropoietin (EPO) [2]; [12]): 0 h
- Baseline-Adjusted Serum EPO Cmax, Geometric Mean (erythropoietin (EPO) [2]; [13]): 9.1 µg/mL
- Baseline-Adjusted Serum EPO Tmax, Median (erythropoietin (EPO) [2]; [13]): 4.50 h
- Baseline-Adjusted Serum EPO Cmax, Geometric Mean (erythropoietin (EPO) [2]; [14]): 33.8 µg/mL
- Baseline-Adjusted Serum EPO Tmax, Median (erythropoietin (EPO) [2]; [14]): 0 h
- Baseline-Adjusted Serum EPO Cmax, Geometric Mean (erythropoietin (EPO) [2]; [15]): 14.5 µg/mL
- Baseline-Adjusted Serum EPO Tmax, Median (erythropoietin (EPO) [2]; [15]): 1.00 h
- Baseline-Adjusted Serum EPO Cmax, Geometric Mean (erythropoietin (EPO) [2]; [16]): 10.0 µg/mL
- Baseline-Adjusted Serum EPO Tmax, Median (erythropoietin (EPO) [2]; [16]): 0 h
- Baseline-Adjusted Serum EPO Cmax, Geometric Mean (erythropoietin (EPO) [2]; [17]): 11.8 µg/mL
- Baseline-Adjusted Serum EPO Tmax, Median (erythropoietin (EPO) [2]; [17]): 4.50 h
- Baseline-Adjusted Serum EPO Cmax, Geometric Mean (erythropoietin (EPO) [2]; [18]): 14.0 µg/mL
- Baseline-Adjusted Serum EPO Tmax, Median (erythropoietin (EPO) [2]; [18]): 4.50 h
- Baseline-Adjusted Serum EPO Cmax, Geometric Mean (erythropoietin (EPO) [2]; [19]): 18.1 µg/mL
- Baseline-Adjusted Serum EPO Tmax, Median (erythropoietin (EPO) [2]; [19]): 1.75 h
- Baseline-Adjusted Serum EPO Cmax, Geometric Mean (erythropoietin (EPO) [2]; [20]): 15.5 µg/mL
- Baseline-Adjusted Serum EPO Tmax, Median (erythropoietin (EPO) [2]; [20]): 0.88 h
- Baseline-Adjusted Serum EPO Cmax, Geometric Mean (erythropoietin (EPO) [2]; [21]): 8.00 µg/mL
- Baseline-Adjusted Serum EPO Tmax, Median (erythropoietin (EPO) [2]; [21]): 2.08 h
- Baseline-Adjusted Serum EPO Cmax, Geometric Mean (erythropoietin (EPO) [2]; [22]): 11.4 µg/mL
- Baseline-Adjusted Serum EPO Tmax, Median (erythropoietin (EPO) [2]; [22]): 3.94 h
- Baseline-Adjusted Serum EPO Cmax, Geometric Mean (erythropoietin (EPO) [2]; [23]): 18.9 µg/mL
- Baseline-Adjusted Serum EPO Tmax, Median (erythropoietin (EPO) [2]; [23]): 2.47 h
- Baseline-Adjusted Serum EPO Cmax, Geometric Mean (erythropoietin (EPO) [2]; [24]): 26.0 µg/mL
- Baseline-Adjusted Serum EPO Tmax, Median (erythropoietin (EPO) [2]; [24]): 0 h
- Baseline-Adjusted Serum EPO Cmax, Geometric Mean (erythropoietin (EPO) [2]; [25]): 14.6 µg/mL
- Baseline-Adjusted Serum EPO Tmax, Median (erythropoietin (EPO) [2]; [25]): 0.92 h
- Baseline-Adjusted Serum EPO Cmax, Geometric Mean (erythropoietin (EPO) [2]; [26]): 13.7 µg/mL
- Baseline-Adjusted Serum EPO Tmax, Median (erythropoietin (EPO) [2]; [26]): 4.00 h
- Baseline-Adjusted Serum EPO Cmax, Geometric Mean (erythropoietin (EPO) [2]; [27]): 173.0 µg/mL
- Baseline-Adjusted Serum EPO Tmax, Median (erythropoietin (EPO) [2]; [27]): 4.63 h
- Baseline-Adjusted Serum EPO Cmax, Geometric Mean (erythropoietin (EPO) [2]; [28]): 8.1 µg/mL
- Baseline-Adjusted Serum EPO Tmax, Median (erythropoietin (EPO) [2]; [28]): 7.08 h
- Baseline-Adjusted Serum EPO Cmax, Geometric Mean (erythropoietin (EPO) [2]; [29]): 14.8 µg/mL
- Baseline-Adjusted Serum EPO Tmax, Median (erythropoietin (EPO) [2]; [29]): 4.75 h
- Baseline-Adjusted Serum EPO Cmax, Geometric Mean (erythropoietin (EPO) [2]; [3]): 3.91 µg/mL
- Baseline-Adjusted Serum EPO Tmax, Median (erythropoietin (EPO) [2]; [3]): 4.50 h
- Baseline-Adjusted Serum EPO Cmax, Geometric Mean (erythropoietin (EPO) [2]; [4]): 6.8 µg/mL
- Baseline-Adjusted Serum EPO Tmax, Median (erythropoietin (EPO) [2]; [4]): 0 h
- Baseline-Adjusted Serum EPO Cmax, Geometric Mean (erythropoietin (EPO) [2]; [5]): 7.7 µg/mL
- Baseline-Adjusted Serum EPO Tmax, Median (erythropoietin (EPO) [2]; [5]): 4.50 h
- Baseline-Adjusted Serum EPO Cmax, Geometric Mean (erythropoietin (EPO) [2]; [6]): 21.4 µg/mL
- Baseline-Adjusted Serum EPO Tmax, Median (erythropoietin (EPO) [2]; [6]): 0 h
- Baseline-Adjusted Serum EPO Cmax, Geometric Mean (erythropoietin (EPO) [2]; [7]): 10.8 µg/mL
- Baseline-Adjusted Serum EPO Tmax, Median (erythropoietin (EPO) [2]; [7]): 0 h
